Source: PubChem BioAssay AID2060483 (Molecular Pharmacology Branch, DTP, NCI, 2025)
pIC50: −log10 of the molar value.

System: K24384-001-R-PDC complex spheroids, viability
Assay: Anticancer human tumor K24384-001-R-PDC patient-derived pancreatic adenocarcinoma cell line growth inhibition [GQUAD]
Details: for pIC50: curve of first compound; for viability, T/C: stronger effect = lower value
Summary of the method: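 Viability of tumor cells grown as complex spheroids with endothelial and stromal cells, exposed to drug combinations. Top concentration at or near clinical Cmax (else 10 microM), diluted in half-log increments.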

[1] = second compound 0.0316 µM, first compound 0.0316 µM
[2] = second compound 0.0316 µM, first compound 0.1 µM
[3] = second compound 0.0316 µM, first compound 0.316 µM
[4] = second compound 0.0316 µM, first compound 1 µM
[5] = second compound 0.0316 µM, first compound 3.16 µM
[6] = second compound 0.0316 µM, first compound 10 µM
[7] = second compound 0.1 µM, first compound 0.0316 µM
[8] = second compound 0.1 µM, first compound 0.1 µM
[9] = second compound 0.1 µM, first compound 0.316 µM
[10] = second compound 0.1 µM, first compound 1 µM
[11] = second compound 0.1 µM, first compound 3.16 µM
[12] = second compound 0.1 µM, first compound 10 µM
[13] = second compound 0.316 µM, first compound 0.0316 µM
[14] = second compound 0.316 µM, first compound 0.1 µM
[15] = second compound 0.316 µM, first compound 0.316 µM
[16] = second compound 0.316 µM, first compound 1 µM
[17] = second compound 0.316 µM, first compound 3.16 µM
[18] = second compound 0.316 µM, first compound 10 µM
[19] = second compound 1 µM, first compound 0.0316 µM
[20] = second compound 1 µM, first compound 0.1 µM
[21] = second compound 1 µM, first compound 0.316 µM
[22] = second compound 1 µM, first compound 1 µM
[23] = second compound 1 µM, first compound 3.16 µM
[24] = second compound 1 µM, first compound 10 µM
[25] = second compound 3.16 µM, first compound 0.0316 µM
[26] = second compound 3.16 µM, first compound 0.1 µM
[27] = second compound 3.16 µM, first compound 0.316 µM
[28] = second compound 3.16 µM, first compound 1 µM
[29] = second compound 3.16 µM, first compound 3.16 µM
[30] = second compound 3.16 µM, first compound 10 µM
[31] = second compound 10 µM, first compound 0.0316 µM
[32] = second compound 10 µM, first compound 0.1 µM
[33] = second compound 10 µM, first compound 0.316 µM
[34] = second compound 10 µM, first compound 1 µM
[35] = second compound 10 µM, first compound 3.16 µM
[36] = second compound 10 µM, first compound 10 µM
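Note: spheroids exposed to compounds for seven days.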

CC1COCCN1c1cc(-c2ccnn2C)c2ccnc(-c3ccn[nH]3)c2n1 (stereo unspecified) + Cc1cnc(CNC(=O)c2c(=O)c3ccc(N4CCCN(C)CC4)nc3n3c2sc2ccccc23)cn1
pIC50 (second compound 0.0316 µM): 7.38
pIC50 (second compound 0.1 µM): > 7.50
pIC50 (second compound 0.316 µM): > 7.50
pIC50 (second compound 1 µM): > 7.50
pIC50 (second compound 3.16 µM): > 7.50
pIC50 (second compound 10 µM): > 7.50
viability, T/C [1]: 53.5%
viability, T/C [2]: 37.8%
viability, T/C [3]: 40%
viability, T/C [4]: 32%
viability, T/C [5]: 34.6%
viability, T/C [6]: 29.9%
viability, T/C [7]: 48.8%
viability, T/C [8]: 51.1%
viability, T/C [9]: 34%
viability, T/C [10]: 41.5%
viability, T/C [11]: 32.2%
viability, T/C [12]: 24.4%
viability, T/C [13]: 44.8%
viability, T/C [14]: 46.4%
viability, T/C [15]: 39.4%
viability, T/C [16]: 34.7%
viability, T/C [17]: 32.8%
viability, T/C [18]: 22.7%
viability, T/C [19]: 42.9%
viability, T/C [20]: 35.2%
viability, T/C [21]: 34%
viability, T/C [22]: 37.4%
viability, T/C [23]: 25.3%
viability, T/C [24]: 22.9%
viability, T/C [25]: 32.8%
viability, T/C [26]: 37.4%
viability, T/C [27]: 31.4%
viability, T/C [28]: 26.8%
viability, T/C [29]: 21.7%
viability, T/C [30]: 19.2%
viability, T/C [31]: 25.4%
viability, T/C [32]: 21.5%
viability, T/C [33]: 20.9%
viability, T/C [34]: 24.8%
viability, T/C [35]: 10.3%
viability, T/C [36]: 8.1%

CC1COCCN1c1cc(C2(S(C)(=N)=O)CC2)nc(-c2ccnc3[nH]ccc23)n1 (stereo unspecified) + CN(C)c1ccc(Nc2c3ccc(NC(=O)CCN4CCCC4)cc3nc3cc(NC(=O)CCN4CCCC4)ccc23)cc1
pIC50 (second compound 0.0316 µM): 5.82
pIC50 (second compound 0.1 µM): 5.80
pIC50 (second compound 0.316 µM): 5.77
pIC50 (second compound 1 µM): 5.77
pIC50 (second compound 3.16 µM): 5.77
pIC50 (second compound 10 µM): 5.77
viability, T/C [1]: 95.2%
viability, T/C [2]: 90.1%
viability, T/C [3]: 113%
viability, T/C [4]: 64.1%
viability, T/C [5]: 28.2%
viability, T/C [6]: 24.2%
viability, T/C [7]: 90.3%
viability, T/C [8]: 115%
viability, T/C [9]: 84.4%
viability, T/C [10]: 60.9%
viability, T/C [11]: 36.4%
viability, T/C [12]: 23.2%
viability, T/C [13]: 83.3%
viability, T/C [14]: 92.9%
viability, T/C [15]: 86.1%
viability, T/C [16]: 56.9%
viability, T/C [17]: 42.2%
viability, T/C [18]: 26.1%
viability, T/C [19]: 86.5%
viability, T/C [20]: 104%
viability, T/C [21]: 86.2%
viability, T/C [22]: 62.2%
viability, T/C [23]: 35.9%
viability, T/C [24]: 32.1%
viability, T/C [25]: 90.2%
viability, T/C [26]: 98.6%
viability, T/C [27]: 99.3%
viability, T/C [28]: 60.8%
viability, T/C [29]: 39.6%
viability, T/C [30]: 23.4%
viability, T/C [31]: 91.6%
viability, T/C [32]: 102%
viability, T/C [33]: 86.9%
viability, T/C [34]: 62.9%
viability, T/C [35]: 35.4%
viability, T/C [36]: 28.2%

C#Cc1c(F)ccc2cc(O)cc(-c3ncc4c(N5CC6CCC(C5)N6)nc(OCC56CCCN5CC(F)C6)nc4c3F)c12 (stereo unspecified) + Cc1[nH]c2ccc(F)cc2c1-c1nc2c3cccnc3c3ncccc3c2[nH]1
pIC50 (second compound 0.0316 µM): 5.87
pIC50 (second compound 0.1 µM): 5.83
pIC50 (second compound 0.316 µM): 5.81
pIC50 (second compound 1 µM): 5.74
pIC50 (second compound 3.16 µM): 6.01
pIC50 (second compound 10 µM): 5.97
viability, T/C [1]: 99.9%
viability, T/C [2]: 99.6%
viability, T/C [3]: 129%
viability, T/C [4]: 58.5%
viability, T/C [5]: 34.4%
viability, T/C [6]: 18.2%
viability, T/C [7]: 93.9%
viability, T/C [8]: 112%
viability, T/C [9]: 85.1%
viability, T/C [10]: 58%
viability, T/C [11]: 34.3%
viability, T/C [12]: 14.5%
viability, T/C [13]: 97.1%
viability, T/C [14]: 101%
viability, T/C [15]: 74.4%
viability, T/C [16]: 57.4%
viability, T/C [17]: 39.2%
viability, T/C [18]: 19.1%
viability, T/C [19]: 91%
viability, T/C [20]: 101%
viability, T/C [21]: 83%
viability, T/C [22]: 64.1%
viability, T/C [23]: 37.5%
viability, T/C [24]: 16.9%
viability, T/C [25]: 75.6%
viability, T/C [26]: 87.6%
viability, T/C [27]: 64.7%
viability, T/C [28]: 47.1%
viability, T/C [29]: 31.3%
viability, T/C [30]: 11.7%
viability, T/C [31]: 80.5%
viability, T/C [32]: 68.6%
viability, T/C [33]: 69%
viability, T/C [34]: 52.4%
viability, T/C [35]: 27.5%
viability, T/C [36]: 10.8%
